Laboratory results taken from the supplement of paper PMC10307832.

Columns and labels:
Assay in all cases: relative viability (nuclei count vs DMSO), 5 days (fraction); higher = more cells survive
[1] = compound: O=S(=O)(c1ccccc1)N(CC(F)(F)F)c1ccc(C(O)(C(F)(F)F)C(F)(F)F)cc1 + Nc1nc2[nH]cc(CCc3ccc(C(=O)N[C@@H](CCC(=O)O)C(=O)O)cc3)c2c(=O)[nH]1 [Pemetrexed] (partner 0.2 µM)
In short: (§1)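 Lung cancer cell lines were seeded in 1536-well plates and dosed by pin tool the next day, with either a single drug or a fixed anchor-drug dose combined with five library-drug doses (not always all listed) spaced in √10 steps. Five days later, one step fixed the cells and stained their nuclei (final 0.05% Triton X-100, 1% formaldehyde, 1 ug/ml Hoechst), and nuclei were counted on 4× images. Relative viability is the nuclei count in treated wells divided by the count in vehicle wells, and each value is the median of duplicate plates.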

RO-3306 + Phenformin = compound: C1=CC2=C(C=CC(=C2)C=C3C(=O)NC(=NCC4=CC=CS4)S3)N=C1 [RO-3306] + N=C(N)NC(=N)NCCc1ccccc1 [Phenformin] (partner 250 µM)
In short: as §1

[2] = compound: O=S(=O)(c1ccccc1)N(CC(F)(F)F)c1ccc(C(O)(C(F)(F)F)C(F)(F)F)cc1 + COc1cccc2cc(-c3nc([C@H]4CC[C@H](C(=O)O)CC4)n4ncnc(N)c34)[nH]c12 [OSI-027] (partner 0.5 µM)
In short: as §1

[3] = compound: O=S(=O)(c1ccccc1)N(CC(F)(F)F)c1ccc(C(O)(C(F)(F)F)C(F)(F)F)cc1 + N=C(N)NC(=N)NCCc1ccccc1 [Phenformin] (partner 250 µM)
In short: as §1

RO-3306 + Luminespib = compound: C1=CC2=C(C=CC(=C2)C=C3C(=O)NC(=NCC4=CC=CS4)S3)N=C1 [RO-3306] + CCNC(=O)c1noc(-c2cc(C(C)C)c(O)cc2O)c1-c1ccc(CN2CCOCC2)cc1 [Luminespib] (partner 0.01 µM)
In short: as §1

| Cell Line | relative viability ([1]; first compound 0.8 µM) | relative viability ([1]; first compound 2.53 µM) | relative viability ([1]; first compound 8 µM) | relative viability (RO-3306 + Phenformin; first compound 0.01 µM) | relative viability (RO-3306 + Phenformin; first compound 0.03162 µM) | relative viability (RO-3306 + Phenformin; first compound 0.1 µM) | relative viability (RO-3306 + Phenformin; first compound 0.3162 µM) | relative viability (RO-3306 + Phenformin; first compound 1 µM) | relative viability ([2]; first compound 0.8 µM) | relative viability ([2]; first compound 2.53 µM) | relative viability ([2]; first compound 8 µM) | relative viability ([3]; first compound 0.8 µM) | relative viability ([3]; first compound 2.53 µM) | relative viability ([3]; first compound 8 µM) | relative viability (RO-3306 + Luminespib; first compound 0.01 µM) | relative viability (RO-3306 + Luminespib; first compound 0.03162 µM) | relative viability (RO-3306 + Luminespib; first compound 0.1 µM) | relative viability (RO-3306 + Luminespib; first compound 0.3162 µM) | relative viability (RO-3306 + Luminespib; first compound 1 µM) |
| --- | --- | --- | --- | --- | --- | --- | --- | --- | --- | --- | --- | --- | --- | --- | --- | --- | --- | --- | --- |
| PC-14 | 0.135 | 0.116 | 0.148 | 0.616 | 0.504 | 0.503 | 0.595 | 0.499 | 0.991 | 0.886 | 0.44 | 0.309 | 0.357 | 0.447 | 0.251 | 0.147 | 0.161 | 0.139 | 0.15 |
| LK-2 | 0.283 | 0.266 | 0.298 | 0.445 |  | 0.312 | 0.499 | 0.344 | 0.213 | 0.199 | 0.229 | 0.505 | 0.66 | 0.555 | 0.187 |  | 0.18 | 0.167 | 0.228 |
| LCLC-97TM1 |  | 0.16 | 0.179 | 0.395 | 0.442 | 0.45 | 0.455 | 0.472 | 0.614 | 0.527 | 0.603 | 0.448 | 0.402 | 0.419 | 0.765 | 0.711 | 0.61 | 0.752 | 0.93 |
| NCI-H520 | 0.757 | 0.908 | 0.795 | 0.562 | 0.422 | 0.425 | 0.491 | 0.588 | 0.298 | 0.21 | 0.281 | 0.825 | 0.568 | 0.708 | 0.252 | 0.212 | 0.249 | 0.218 | 0.23 |
| NCI-H2405 | 1.17 | 1.05 | 1.01 | 0.403 | 0.539 | 0.356 | 0.368 | 0.554 | 0.674 | 0.645 | 0.681 | 0.386 | 0.402 | 0.396 | 0.753 | 0.705 | 0.849 | 0.607 | 0.7 |
| NCI-H596 | 0.549 | 0.528 | 0.562 | 0.77 | 0.63 | 0.799 | 0.758 | 0.966 | 0.71 | 0.6 | 0.716 | 0.805 | 0.717 | 0.667 | 1.06 | 0.853 | 1.13 | 0.84 | 0.974 |
| EPLC-272H | 0.361 | 0.41 | 0.376 | 0.312 | 0.399 | 0.308 | 0.25 | 0.317 | 0.301 | 0.304 | 0.25 | 0.273 | 0.304 | 0.269 | 0.239 | 0.114 | 0.142 | 0.367 | 0.111 |
| RERF-LC-KJ | 0.477 | 0.453 | 0.461 | 0.428 | 0.445 | 0.416 | 0.445 | 0.407 | 0.545 | 0.599 | 0.556 | 0.449 | 0.364 | 0.408 | 1.15 | 1.41 | 1.17 | 1.45 | 0.99 |
| HARA | 0.254 |  | 0.269 | 0.471 | 0.357 | 0.504 | 0.429 | 0.466 | 0.397 | 0.469 | 0.425 | 0.438 | 0.357 | 0.304 | 0.485 | 0.509 | 0.676 | 0.455 | 0.679 |
